In ChEMBL document CHEMBL3352218, “Structural basis for inhibition of mycobacterial and human adenosine kinase by 7-substituted 7-(Het)aryl-7-deazaadenine ribonucleosides” (J Med Chem, 2014) one finds IC50 data, which are given here for 34 compounds.

This assay relates to Mycobacterium tuberculosis. Nature of the assay: microbe, parasite or virus in culture. The note with it: variant bovis BCG, 504 h.

Take `CC(C)c1cccc(-c2cn([C@@H]3O[C@H](CO)[C@@H](O)[C@H]3O)c3ncnc(N)c23)c1`: half-maximal inhibition (IC50) was put at 6750 nM.
In turn, `Nc1ncnc2c1c(-c1ccc3c4c(cccc14)CC3)cn2[C@@H]1O[C@H](CO)[C@@H](O)[C@H]1O` registered an IC50 of 1740 nM.
With `Nc1ncnc2c1c(-c1cn[nH]c1)cn2[C@@H]1O[C@H](CO)[C@@H](O)[C@H]1O`, the IC50 came to 3080 nM.
`Nc1ncnc2c1c(-c1cc[nH]c1)cn2[C@@H]1O[C@H](CO)[C@@H](O)[C@H]1O` gave an IC50 of 1120 nM. This IC50 is about 2.8-fold lower than that of the compound before.
The figure for `Nc1ncnc2c1c(-c1cccc3c1Oc1ccccc1S3)cn2[C@@H]1O[C@H](CO)[C@@H](O)[C@H]1O` is 4530 nM; for `Nc1ncnc2c1c(-c1ccc(-c3ccc4ccccc4c3)cc1)cn2[C@@H]1O[C@H](CO)[C@@H](O)[C@H]1O` it is 74400 nM; for `CC(C)(C)c1ccc(-c2cn([C@@H]3O[C@H](CO)[C@@H](O)[C@H]3O)c3ncnc(N)c23)cc1` it is 4540 nM.
In the case of `Nc1ncnc2c1c(-c1c[nH]cn1)cn2[C@@H]1O[C@H](CO)[C@@H](O)[C@H]1O`, the IC50 was > 100000 nM.
With `Nc1ncnc2c1c(-c1ccc(COc3cccc4ccccc34)cc1)cn2[C@@H]1O[C@H](CO)[C@@H](O)[C@H]1O`, the midpoint of inhibition, the IC50, lay at 6390 nM.
`Nc1ncnc2c1c(-c1c[nH]nn1)cn2[C@@H]1O[C@H](CO)[C@@H](O)[C@H]1O` yielded an IC50 of 69000 nM.
With `Nc1ncnc2c1c(-c1cc3ccccc3o1)cn2[C@@H]1O[C@H](CO)[C@@H](O)[C@H]1O`, the IC50 came out at 2270 nM.
With `Cc1ccc(-c2cn([C@@H]3O[C@H](CO)[C@@H](O)[C@H]3O)c3ncnc(N)c23)cc1C`, the IC50 came to 1130 nM.
`Nc1ncnc2c1c(-c1ccoc1)cn2[C@@H]1O[C@H](CO)[C@@H](O)[C@H]1O`: inhibition was half-maximal at 8310 nM (IC50). This IC50 lies about 7.4-fold higher than the previous one.
As to `Nc1ncnc2c1c(-c1ccc3c(c1)OCO3)cn2[C@@H]1O[C@H](CO)[C@@H](O)[C@H]1O`, the IC50 was found to be 1380 nM.
`Nc1ncnc2c1c(-c1ccccc1)cn2[C@@H]1O[C@H](CO)[C@@H](O)[C@H]1O` came in with a half-inhibitory concentration (IC50) of 1340 nM.
As for `COc1cc(-c2cn([C@@H]3O[C@H](CO)[C@@H](O)[C@H]3O)c3ncnc(N)c23)cc(OC)c1OC`, it took 7050 nM to reach half-maximal inhibition (IC50).
The figure for `Nc1ncnc2c1c(-c1ccsc1)cn2[C@@H]1O[C@H](CO)[C@@H](O)[C@H]1O` is 3930 nM; for `CSc1ccc(-c2cn([C@@H]3O[C@H](CO)[C@@H](O)[C@H]3O)c3ncnc(N)c23)cc1` it is 360 nM.
For the compound `Nc1ncnc2c1c(-c1cc3ccccc3c3ccccc13)cn2[C@@H]1O[C@H](CO)[C@@H](O)[C@H]1O`, the IC50 worked out at 1900 nM.
The figure for `Nc1ncnc2c1c(/C=C/c1ccccc1)cn2[C@@H]1O[C@H](CO)[C@@H](O)[C@H]1O` is 1300 nM; for `Nc1ncnc2c1c(-c1nccs1)cn2[C@@H]1O[C@H](CO)[C@@H](O)[C@H]1O` it is 2510 nM.
`COc1ccc(-c2cn([C@@H]3O[C@H](CO)[C@@H](O)[C@H]3O)c3ncnc(N)c23)cc1`: the IC50 was 2080 nM.
The figure for `CC(C)Oc1ccc(-c2cn([C@@H]3O[C@H](CO)[C@@H](O)[C@H]3O)c3ncnc(N)c23)cc1` is 3070 nM.
`Nc1ncnc2c1c(-c1ccc(-c3ccccc3)cc1)cn2[C@@H]1O[C@H](CO)[C@@H](O)[C@H]1O` registered an IC50 of 1680 nM.
In turn, `C#Cc1cn([C@@H]2O[C@H](CO)[C@@H](O)[C@H]2O)c2ncnc(N)c12` came in with an IC50 of 130 nM.
In turn, `Nc1ncnc2c1c(-c1cc[nH]n1)cn2[C@@H]1O[C@H](CO)[C@@H](O)[C@H]1O` yielded an IC50 of 48000 nM.
Consider `Nc1ncnc2c1c(-c1ccc[nH]1)cn2[C@@H]1O[C@H](CO)[C@@H](O)[C@H]1O`, for which half-maximal inhibition (IC50) was put at 7270 nM.
The figure for `Nc1ncnc2c1c(-c1ccc3ccccc3c1)cn2[C@@H]1O[C@H](CO)[C@@H](O)[C@H]1O` is 390 nM; for `Nc1ncnc2c1c(-c1cccc3c1Sc1ccccc1S3)cn2[C@@H]1O[C@H](CO)[C@@H](O)[C@H]1O` it is 44300 nM; for `Nc1ncnc2c1c(-c1ccc(C(F)(F)F)cc1)cn2[C@@H]1O[C@H](CO)[C@@H](O)[C@H]1O` it is 1160 nM.
In turn, `Nc1ncnc2c1c(-c1cccc3c1oc1ccccc13)cn2[C@@H]1O[C@H](CO)[C@@H](O)[C@H]1O` displayed a half-maximal inhibitory concentration (IC50) of 190 nM.
With `Nc1ncnc2c1c(-c1ncc[nH]1)cn2[C@@H]1O[C@H](CO)[C@@H](O)[C@H]1O`, the IC50 was > 100000 nM.
Consider `CC(C)c1ccc(-c2cn([C@@H]3O[C@H](CO)[C@@H](O)[C@H]3O)c3ncnc(N)c23)cc1`, for which the IC50 came out at 5290 nM.
For `Nc1ncnc2c1c(-c1cccc3ccccc13)cn2[C@@H]1O[C@H](CO)[C@@H](O)[C@H]1O`, the half-maximal inhibitory concentration (IC50) stood at 1870 nM. This IC50 lies about 2.8-fold lower than the previous one.
